According to paper PMC6389928, “Biomolecular Interaction, Anti-Cancer and Anti-Angiogenic Properties of Cobalt(III) Schiff Base Complexes” (Scientific Reports, 2019):
Where two headings read alike, the source gives them in different places.

How the values were obtained:
[1] = system: monkey kidney epithelial cell Vero; test: MTT assay on Vero cells
Description: The anti-proliferative property of the complexes 1 and 2 at different concentrations on A549 lung carcinoma cell and monkey kidney epithelial cell Vero was examined by adopting MTT assay (Fig. S7). […] The naked cobalt acetate and ligands salen and salophen were separately tested on A549 cells to understand if metal chelation is the principal basis of the anticancer activity of the complexes.
Culture: Human lung cancer cells (A549) were received from National Centre for Cell Science (NCCS) Pune, India. Vero cells were obtained from ATCC. The cells were grown at humidified atmosphere of 5% CO2 in an incubator at 37 °C (Forma, Thermo Scientific, USA) in DMEM medium (Invitrogen) containing 10% FBS (Sigma-Aldrich, St. Louis, Mo, USA), 100 μg/mL of penicillin and 100 μg/mL streptomycin were used as antibiotics (Himedia, Mumbai, India). […] The cells were seeded in 96 well plates (5000 A549 cells per well) and allowed to attach for 24 h. The cells were then incubated with different concentrations of the metal complexes 1 and 2 dissolved in 100% dimethyl sulfoxide (DMSO) (Sigma-Aldrich) and prepared to a final dilution of 0.02% of DMSO.
In the determination of IC50 value, 0.02% DMSO was used as the solvent control. After the end of incubation period (24 h), the medium was aspirated carefully and replaced with new medium. The formazan formed was dissolved in100 μL of 100% DMSO to each well. […]

[2] = system: EB - DNA; test: Competitive binding with ethidium bromide: fluorescence quenching of EB - DNA; conditions: quenching of EB-DNA emission, F0/F vs [complex]/[DNA], λex 450 nm
Description: The complexes 1 and 2 are non-emissive in nature. […] In this study, changes in the intensity of the fluorescence emission band of EB - DNA complex were monitored after the addition of metal complexes 1 and 2 (Fig. 2). Upon increasing complex concentration in the DNA-EB solution, EB emission intensity was decreased. […] The resulting data (Table 1) of the complexes 1 and 2 with EB-DNA was processed from the standard Stern-Volmer equation[38], F0/F=1+Ksvr where F0 and F are the fluorescence emission intensities in the absence and presence of quencher (i.e. complexes 1 and 2), r is the ratio of concentration of the quencher. Ksv is the Stern-Volmer quenching constant.
For fluorescence quenching experiments, nucleic acids solution was pretreated with ethidium bromide (EB) for 30 min. Solutions of cobalt(III) complexes were then added to this mixture and their effect on the emission intensity was measured. The samples were excited at 450 nm and emission was observed between 500 and 750 nm.

[3] = system: A549 cells; test: Cell cycle analysis by flow cytometry; assay type: cell-based, Human; conditions: A549, IC50 concentrations, 24 h, propidium iodide, compared to control
Protocol: The possible cell cycle arrest was determined by flow cytometer which is used to distinguish and quantify the cells in different phases of the cell cycle. The cells were treated with the complexes 1 and 2 at the respective half maximal inhibitory concentrations. The cells were fixed, stained with propidium iodide and analysed for DNA/cell content as aspects of cell cycle distribution. The DNA histograms and the percentage of cells in each of the phases are given Fig. 5. […] The increase of cell accumulation in sub G0 - G1 phase indicated delay in progression of cell cycle. The cells thus inhibited in division end up in the apoptosis due to sub G0 − G1 check point arrest. […] In as much as apoptosis itself could be induced due to the DNA damage, necrosis is a clear indication of damage caused by the complexes to the cytosol.
Cell cycle analysis: Cell phase distribution was determined by flow cytometry with DNA staining to reveal the total amount of DNA[94]. […] After incubation, the cells were trypsinized, harvested, fixed in 1 mL 80% cold ethanol and incubated at 4 °C for 15 min. […] Cell cycle distribution was analyzed using FACS (fluorescent activated cell sorter) (Becton-Dickinson, Sanjose, CA, USA) with 15 mW, 488 nm argon ion laser. […] The data were acquired and analyzed using Dean-Jett-Fox algorithm.

[4] = system: CT-DNA; test: Cyclic voltammetry in the absence and presence of CT-DNA; assay type: binding; conditions: absence of DNA, 0.5% DMSO/PBS, glassy carbon vs saturated calomel; for cathodic peak potential Epc: Co(III) to Co(II)
Protocol: Electrochemical studies of complexes 1 and 2 were recorded in 0.5% DMSO/PBS buffer solution, with glassy carbon as working electrode vs saturated calomel as reference electrode and Pt wire as auxiliary electrode. […] On addition of CT-DNA to each cobalt complex solution, no new peak appeared. […] The decrease in voltammetric current in the presence of CT- DNA is possibly due to the diffusion of the complexes 1 and 2 bound to the large, slowly diffusing DNA molecule[39],[40]. The positive shifts indicate that complexes 1 and 2 bind to DNA through intercalation as observed in the spectroscopic studies[39],[40].
For cyclic voltammetry experiments, the electrode surfaces were freshly polished with alumina powder and then sonicated in ethanol and distilled water for 1 min prior to each experiment and the electrode was rinsed with doubly distilled water thoroughly between each polishing step. Finally, each electrode was cleaned thoroughly in an ultrasonic cleaner again with doubly distilled water. Cyclic voltammetric experiments were performed at room temperature in […] in a single compartment cell with a three-electrode configuration, namely, glassy carbon working electrode, platinum wire auxiliary electrode and saturated calomel as reference electrode. Before experiments, all solutions were deaerated with dry nitrogen gas for 10 min to remove dissolved oxygen and kept in nitrogen atmosphere throughout the experiments.

[5] = system: DNA; test: Viscosity measurement of DNA; assay type: binding; conditions: 30.0 ± 0.2 °C, increasing amounts of compound
Description: The mode of interaction between DNA and complexes has been further confirmed using viscosity measurements. The intercalation between DNA and metal complex causes lengthening of the DNA helix and increases DNA’s relative viscosity. Ethidium bromide (EB) is a well known DNA intercalator which was used as a standard to make sure our viscosity determination was working properly. […] The increase in relative viscosity follows the DNA-intercalating ability and the order of relative viscosity is EB > 2 > 1.
CD spectra of CT–DNA in the absence and presence of cobalt(III) complexes 1 and 2 were recorded in phosphate buffer. Each sample solution was scanned in the range of 200–320 nm, and final CD spectra were generated after averaging three scans subtracting the buffer background. Viscosity experiments were performed using an Ubbelohde viscometer at a constant temperature (30.0 ± 0.2 °C).

Row | Structure (SMILES) | concentration up to which no significant toxicity [1] [µM] | Stern–Volmer constant (Ksv) [2] | effect on cell cycle distribution [3] | cathodic peak current ipc [4] | cathodic peak potential Epc [4] [V] | effect on relative viscosity of DNA [5] | concentration up to which no significant toxicity ([1]; Vero cells, MTT) [µM]
1 | CCCCCCCCCCCC[NH2+][Co-3]123([NH2+]CCCCCCCCCCCC)[O]c4ccccc4C=[N+]1CC[N+]2=Cc1ccccc1[O]3.[O-][Cl+3]([O-])([O-])[O-] [Complex 1, trans-[Co(salen)(DA)2](ClO4)] | > 150 | 0.5694 | gradual increase in sub G0 − G1 and G2 − M phases | −1.184 × 10^−5 A | −0.490 | the relative viscosity of DNA increased | –
2 | CCCCCCCCCCCC[NH2+][Co-3]123([NH2+]CCCCCCCCCCCC)[O]c4ccccc4C=[N+]1c1ccccc1[N+]2=Cc1ccccc1[O]3.[O-][Cl+3]([O-])([O-])[O-] [Complex 2, trans-[Co(salophen)(DA)2](ClO4)] | – | 0.6067 | gradual increase in sub G0 − G1 and G2 − M phases | −3.622 × 10^−6 A | −0.265 | the relative viscosity of DNA increased | > 150
